Measurements published in patent US20010055627A1, “Compositions And Methods For Regulating Lipoproteins And Hypercholesterolemia With Limonoids, Flavonoids And Tocotrienols” (priority 1997, published 2001).
Converted amounts (≈) assume the structure as drawn. Where two headings read alike, the source gives them in different places.

Legend:
[1] = system: apo-B production in HepG2 cells; assay: Apo-B content of medium of HepG2 cells by ELISA; type: cell-based, human; conditions: for reduction of medium apo-B levels / effect on apo-B levels/content: HepG2, 24 h; for reduction of medium apo-B levels: 50 μg/mL, per mg cell protein, versus control
Description: Cell Culture: Confluent HepG2 cells were preincubated in minimum essential medium (MEM) containing 1.0% bovine serum albumin (BSA) for 24 hours. This was followed by a second 24 hour incubation with or without various non-toxic concentrations of naringenin or hesperitin (7.5-60 ug/ml). At the end of the second 24 hour incubation, the apo-B content of the media was determined by enzyme-lined immunosorbent assay (ELISA) (Young et al., 1986, Clin. Chem. 32:1484-1490).
Protein Determination: The soluble cellular protein was extracted and measured using Pierce Coomassie Plus Protein Assay.
(§1) The limonoids, limonin and nomilin were examined for the cholesterol-lowering potential in HepG2 cells. Confluent HepG2 cells were preincubated for 24 h in a lipoprotein-free medium in which the fetal bovine serum was replaced by albumin to inhibit cell proliferation and to stimulate synthesis of cholesterol-containing lipoproteins. Cells were subsequently incubated for another 24 h in the same medium in the presence or absence of limonoids at the highest concentrations sustaining 100% cell viability, as determined by 3-(4,5-dimethylthiazol-2-yl)-2,5-diphenyltetrazolium bromide (MTT) viability assay. The limonoids were added to the cell culture medium after solubilization in dimethyl sulfoxide (DMSO). At the end of the incubation, culture media were collected and the concentration of the LDL structural protein, apo-B, was measured by Elisa by procedures already described in Section 6.0. Amount of lipoprotein-associated apo-B in the media (net apo-B secretion) was determined as described previously, calculated per mg cell protein and expressed as percent of control.
Apo-B productioon (the structural protein of LDL) was studied in HepG2 cells, using a 24. The effect of flavonoids on apo-B production after 24 h incubation of cells and measuring apo-B by Elisa as described above. All flavonoids, reduced the apo-B levels dose dependently.

[2] = system: hamster model of experimental hypercholesterolemia; assay: Serum lipids in hamster model of experimental hypercholesterolemia (casein, cholesterol-enriched diet); type: in vivo, Golden Syrian hamsters; conditions: hamsters; for HDL cholesterol (serum) / Total cholesterol (serum) / Total triacylglycerols (serum) / VLDL + LDL Cholesterol (serum) / VLDL + LDL/HDL cholesterol ratio: 35 days on diet; for HDL cholesterol (serum) / Total cholesterol (serum) / Total triacylglycerols (serum): supplement level as in label; for HDL cholesterol (serum) / Total cholesterol (serum) / VLDL + LDL Cholesterol (serum) / VLDL + LDL/HDL cholesterol ratio: mean; for Total triacylglycerols (serum): means ± SD; for VLDL + LDL Cholesterol (serum): difference between total and HDL cholesterol
Description: Extracted flavonoids and a tocotrienol-rich preparation from palm oil, all provided by KGK Synergize Inc. London, Ontario, were tested in the hamster model of experimental hypercholesterolemia. The purpose of the study was to establish whether in this model, 2% supplementation of casein diet with palm tocotrienol preparation containing 70% of pure tocotrienols α-, γ- and δ-(TTP), or a similar 2% supplementation with flavonoids, hesperidin extrated from oranges and naringin extrated from grapefruit, could lower the elevated LDL cholesterol levels induced by casein. A further purpose of the study was to determine whether supplementation with 2% TTP in combination with 2% hesperidin or 2% naringin could result in synergistic cholesterol-lowering effects. Synergistic cholesterol-lowering responses have been observed for combinations of tocotrienols and citrus flavonoids in human liver cell line HepG2. The additional goal of this study was to establish whether in the same hamster model of hypercholesterolemia, 0.13% supplementation of casein diet with a mixture of polymethoxylated flavones from tangerines (PMF) could lower the elevated LDL cholesterol levels induced by casein. This experiment was based on previous tests In vitro using human liver cell line HepG2, in which principal flavonoids from PMF, tangeretin and nobiletin, had much greater cholesterol-lowering potential than hesperetin or naringenin.
In hamsters, feeding a semipurified, casein-based, cholesterol-enriched diet for the period of 5 weeks induces experimental hypercholesterolemia associated with elevation of LDL cholesterol, similar to that observed in humans.
(§2) Fifty four male Golden Syrian hamsters weighing 100-120 g at arrival were housed individually in a constant temperature 21-24° C. and with 12 h light:dark cycle. The animals were fed ground chow diet for 1 week. Thereafter, they were divided into seven groups (six groups of 8 animals and one group of 6 animals), each with similar average body weight, and fed experimental diets for 35 days. Food and water were provided at libitum. Food consumption was estimated during the last two weeks of treatment, for thee consecutive days during each week.
(§3) The basal composition was similar to that described earlier. All diets contained 25% casein and 0.1% cholesterol. Experimental diets contained TTP and/or principal flavonoids, hesperidin or naringenin, added at indicated levels at the expense of rice flour.
At the end of the study, the animals were fasted overnight and blood samples were taken by heart puncture. Total cholesterol in whole serum and in HDL fraction as well as total triacylglycerols were measured by enzymatic timed-endpoint methods, using the Beckman Coulter reagents (CHOL Reagent, HDLD HDL Reagent and TG Triglycerides GPO Reagent, respectively). All measurements were performed using SYNCHON LX System. VLDL+LDL cholesterol concentrations were calculated as a difference between total and HDL cholesterol. Results obtained were analyzed by one-way ANOVA followed by Dunnet's or Student-Newman-Keuls test for all groups and additionally by t-test for the PMF vs. the control group. Significant differences were reported at p<0.05.

[3] = Growth performance of hamsters fed experimental diets; type: in vivo, Golden Syrian hamsters; conditions: supplement level as in label, means ± SD; for Growth Rate: diet for 35 days; for Food Consumption: last two weeks of treatment
Description: as §2, §3

[4] = system: casein-induced hypercholesterolemia; assay: Serum lipoprotein cholesterol in rabbits fed cholesterol-free casein diet with citrus juice; type: in vivo; conditions: rabbits on casein diet, 3 weeks; hesperitin given as orange juice, naringenin as grapefruit juice (two times regular strength)
Description: The effect of naringenin and hesperetin on casein-induced hypercholesterolemia was studied in rabbits. In each of the two experiments, rabbits were assigned to thee experimental groups. Each group was given semipurified, cholesterol-free casein diet and either water, orange juice or grapefruit juice to drink. The control group received water to drink and the experimental groups were given either orange juice or grapefruit juice (reconstituted concentrates made up to two times the regular strength). […] FIG. 1 depicts the design of the experiment.
Dextrose in the diets of the hesperitin (orange juice) and naringenin (grapefruit juice) groups was reduced to account for the sugar consumed via citrus juices. All other dietary components were left unchanged. (Table 1).
Serum Analysis: At the end of the study, VLDL, LDL and HDL fractions were separated by discontinuous density gradient ultracentrifugation. Total cholesterol in serum and in each lipoprotein fraction were measured using the Boehinger Manheim CHOL kit (Manheim, Germany).

[5] = system: 14C-acetate incorporation into cellular lipids in HepG2 cells; assay: 14C-acetate incorporation into cellular lipids of HepG2 cells; type: cell-based, human; conditions: HepG2, 24 h, 50 μg/ml (highest non-toxic concentration)
Description: ^14C-acetate Incorporation: To determine whether exposure to flavonoids can also alter intracellular lipid metabolism, confluent HepG2 cells were incubated for 24 hours with the highest apo-B-reducing, non-toxic concentration of these flavonoids, in the presence of ^14C-acetate (0.5u Ci/ml medium). Radiolabelled lipids were then extracted from cells using heptane/isopropyl alcohol (3:2, v/v), and separated by thin layer chomatrography. A hexane/ethyl ether/acetic acid solvent (75:25:1, v/v) was used to separate cholesterol, cholesterol esters and triglycerides. Lipid fractions were scraped into scintillation vials and the radioactivity was measured using Beckman Scintillation Counter.
To determine whether exposure to limonin altered intracellular lipid metabolism, confluent HepG2 cells were incubated for 24 h with or without the highest non-cytotoxic concentration of limonin. During the last 5 h of the incubation, ^14C-acetate (0.5 μCi/mL) was added to the medium. The extraction and separation of cellular lipids was done described above.

[6] = system: HepG2 cells; assay: MTT viability assay, highest non-toxic concentration; type: cell-based, human; conditions: HepG2, 100% cell viability by MTT
Description: as §1

[7] = five weeks, versus control diet, 2% in diet (PMF 0.13%)
[8] = Homo sapiens, HepG2, comparison of limonin and flavonoids, FIG. 5, read-out: IC50 apo-B content

CC(=O)O[C@H]1CC(=O)OC(C)(C)[C@@H]2CC(=O)[C@]3(C)[C@H](CC[C@@]4(C)[C@H](c5ccoc5)OC(=O)[C@H]5O[C@]543)[C@@]12C [nomilin]
reduction of medium apo-B levels [1]: 40%

C[C@@H]1O[C@@H](O[C@H]2[C@H](Oc3cc(O)c4c(c3)O[C@H](c3ccc(O)cc3)CC4=O)O[C@H](CO)[C@@H](O)[C@@H]2O)[C@H](O)[C@H](O)[C@H]1O [naringin]
HDL cholesterol (serum) [2]: 3.89 mM/L
Total cholesterol (serum) [2]: 6.56 mM/L
Total triacylglycerols (serum) [2]: 3.58 ± 1.40 mM/L
VLDL + LDL Cholesterol (serum) [2]: 2.66 mM/L
VLDL + LDL/HDL cholesterol ratio [2]: 0.68
Percent change HDL cholesterol ([2]; 35 days, versus control diet): −11%
Percent change Total cholesterol ([2]; 35 days, versus control diet): −11%
Percent change VLDL + LDL Cholesterol ([2]; 35 days, versus control diet): −12%
reduction of serum HDL cholesterol [2, 7]: 11%
reduction of serum total cholesterol [2, 7]: 11%
Growth Rate [3]: 1.03 ± 0.26 g/day
Food Consumption [3]: 10.44 ± 2.36 g/day

COc1ccc(-c2cc(=O)c3c(OC)c(OC)c(OC)c(OC)c3o2)cc1OC [nobiletin]
IC50 apo-B production ([1]; HepG2, 24 h incubation, ELISA): 4.9 µg/mL (≈ 12.2 µM)

COc1ccc([C@@H]2CC(=O)c3c(O)cc(O[C@@H]4O[C@H](CO[C@@H]5O[C@@H](C)[C@H](O)[C@@H](O)[C@H]5O)[C@@H](O)[C@H](O)[C@H]4O)cc3O2)cc1O [hesperidin]
HDL cholesterol (serum) [2]: 4.07 mM/L
Total cholesterol (serum) [2]: 6.73 mM/L
Total triacylglycerols (serum) [2]: 2.64 ± 1.47 mM/L
VLDL + LDL Cholesterol (serum) [2]: 2.66 mM/L
VLDL + LDL/HDL cholesterol ratio [2]: 0.66
Percent change HDL cholesterol ([2]; 35 days, versus control diet): −7%
Percent change Total cholesterol ([2]; 35 days, versus control diet): −9%
Percent change Total triacylglycerols ([2]; 35 days, versus control diet): −36%
Percent change VLDL + LDL Cholesterol ([2]; 35 days, versus control diet): −12%
reduction of serum HDL cholesterol [2, 7]: 7%
reduction of serum total triacylglycerols [2, 7]: 36%
Growth Rate [3]: 0.98 ± 0.24 g/day
Food Consumption [3]: 13.15 ± 4.72 g/day

COc1ccc(-c2cc(=O)c3c(OC)c(OC)c(OC)c(OC)c3o2)cc1 [tangeretin]
IC50 apo-B production ([1]; HepG2, 24 h incubation, ELISA): 2.5 µg/mL (≈ 6.71 µM)

COc1ccc([C@@H]2CC(=O)c3c(O)cc(O)cc3O2)cc1O [hesperetin]
reduction of LDL cholesterol levels compared with those given water [4]: 43%
effect on apo-B levels/content [1]: reduced the apo-B content in a dose-dependent manner
IC50 apo-B production ([1]; HepG2, 24 h incubation, ELISA): 43.0 µg/mL (≈ 142 µM)
IC50 ([1]; HepG2, comparison of limonin and flavonoids, FIG. 5, read-out: IC50 apo-B content): 43 µM

CC1(C)O[C@H]2CC(=O)OC[C@]23[C@H]2CC[C@@]4(C)[C@H](c5ccoc5)OC(=O)[C@H]5O[C@]54[C@]2(C)C(=O)C[C@@H]13 [limonin]
effect on apo-B levels/content [1]: reduced the apo-B content in a dose-dependent manner
reduction of medium apo-B levels [1]: 74%
IC50 concentration times lower than for both flavonoids (hesperetin, naringenin) ([1]; HepG2 apo-B): 2-2.4 times
IC50 [1, 8]: 20.5 µM
effect on 14C-acetate incorporation into cellular cholesterol, cholesteryl esters and triacylglycerols [5]: no effect
highest non-toxic concentration [6]: 50 µg/mL

O=C1C[C@@H](c2ccc(O)cc2)Oc2cc(O)cc(O)c21 [naringenin]
reduction of LDL cholesterol levels compared with those given water [4]: 32%
effect on apo-B levels/content [1]: reduced the apo-B content in a dose-dependent manner
IC50 ([1]; Homo sapiens, HepG2, 24 h incubation, ELISA, read-out: IC50 apo-B production): 48.5 µg/mL
IC50 [1, 8]: 48.5 µM
